Measured values from ChEMBL document CHEMBL2203155, “Structure-based discovery of C-2 substituted imidazo-pyrrolopyridine JAK1 inhibitors with improved selectivity over JAK2” (Bioorg Med Chem Lett, 2012).
In brackets after ≈: the same amount, converted by molar mass.

Assays:
[1] = molecular target: T1, Tyrosine-protein kinase JAK1 (Homo sapiens, UniProt P23458); format: cell-based, TF-1
[2] = molecular target: T1, Tyrosine-protein kinase JAK1
[3] = Selectivity ratio of Ki for JAK2 kinase domain to Ki for JAK1 kinase domain
[4] = molecular target: Leucine-rich repeat serine/threonine-protein kinase 2 (Homo sapiens) (UniProt Q5S007); experiment: Inhibition of LRRK2 at 0.1 uM
Sequence of Leucine-rich repeat serine/threonine-protein kinase 2 (Homo sapiens) (Q5S007 whole entry): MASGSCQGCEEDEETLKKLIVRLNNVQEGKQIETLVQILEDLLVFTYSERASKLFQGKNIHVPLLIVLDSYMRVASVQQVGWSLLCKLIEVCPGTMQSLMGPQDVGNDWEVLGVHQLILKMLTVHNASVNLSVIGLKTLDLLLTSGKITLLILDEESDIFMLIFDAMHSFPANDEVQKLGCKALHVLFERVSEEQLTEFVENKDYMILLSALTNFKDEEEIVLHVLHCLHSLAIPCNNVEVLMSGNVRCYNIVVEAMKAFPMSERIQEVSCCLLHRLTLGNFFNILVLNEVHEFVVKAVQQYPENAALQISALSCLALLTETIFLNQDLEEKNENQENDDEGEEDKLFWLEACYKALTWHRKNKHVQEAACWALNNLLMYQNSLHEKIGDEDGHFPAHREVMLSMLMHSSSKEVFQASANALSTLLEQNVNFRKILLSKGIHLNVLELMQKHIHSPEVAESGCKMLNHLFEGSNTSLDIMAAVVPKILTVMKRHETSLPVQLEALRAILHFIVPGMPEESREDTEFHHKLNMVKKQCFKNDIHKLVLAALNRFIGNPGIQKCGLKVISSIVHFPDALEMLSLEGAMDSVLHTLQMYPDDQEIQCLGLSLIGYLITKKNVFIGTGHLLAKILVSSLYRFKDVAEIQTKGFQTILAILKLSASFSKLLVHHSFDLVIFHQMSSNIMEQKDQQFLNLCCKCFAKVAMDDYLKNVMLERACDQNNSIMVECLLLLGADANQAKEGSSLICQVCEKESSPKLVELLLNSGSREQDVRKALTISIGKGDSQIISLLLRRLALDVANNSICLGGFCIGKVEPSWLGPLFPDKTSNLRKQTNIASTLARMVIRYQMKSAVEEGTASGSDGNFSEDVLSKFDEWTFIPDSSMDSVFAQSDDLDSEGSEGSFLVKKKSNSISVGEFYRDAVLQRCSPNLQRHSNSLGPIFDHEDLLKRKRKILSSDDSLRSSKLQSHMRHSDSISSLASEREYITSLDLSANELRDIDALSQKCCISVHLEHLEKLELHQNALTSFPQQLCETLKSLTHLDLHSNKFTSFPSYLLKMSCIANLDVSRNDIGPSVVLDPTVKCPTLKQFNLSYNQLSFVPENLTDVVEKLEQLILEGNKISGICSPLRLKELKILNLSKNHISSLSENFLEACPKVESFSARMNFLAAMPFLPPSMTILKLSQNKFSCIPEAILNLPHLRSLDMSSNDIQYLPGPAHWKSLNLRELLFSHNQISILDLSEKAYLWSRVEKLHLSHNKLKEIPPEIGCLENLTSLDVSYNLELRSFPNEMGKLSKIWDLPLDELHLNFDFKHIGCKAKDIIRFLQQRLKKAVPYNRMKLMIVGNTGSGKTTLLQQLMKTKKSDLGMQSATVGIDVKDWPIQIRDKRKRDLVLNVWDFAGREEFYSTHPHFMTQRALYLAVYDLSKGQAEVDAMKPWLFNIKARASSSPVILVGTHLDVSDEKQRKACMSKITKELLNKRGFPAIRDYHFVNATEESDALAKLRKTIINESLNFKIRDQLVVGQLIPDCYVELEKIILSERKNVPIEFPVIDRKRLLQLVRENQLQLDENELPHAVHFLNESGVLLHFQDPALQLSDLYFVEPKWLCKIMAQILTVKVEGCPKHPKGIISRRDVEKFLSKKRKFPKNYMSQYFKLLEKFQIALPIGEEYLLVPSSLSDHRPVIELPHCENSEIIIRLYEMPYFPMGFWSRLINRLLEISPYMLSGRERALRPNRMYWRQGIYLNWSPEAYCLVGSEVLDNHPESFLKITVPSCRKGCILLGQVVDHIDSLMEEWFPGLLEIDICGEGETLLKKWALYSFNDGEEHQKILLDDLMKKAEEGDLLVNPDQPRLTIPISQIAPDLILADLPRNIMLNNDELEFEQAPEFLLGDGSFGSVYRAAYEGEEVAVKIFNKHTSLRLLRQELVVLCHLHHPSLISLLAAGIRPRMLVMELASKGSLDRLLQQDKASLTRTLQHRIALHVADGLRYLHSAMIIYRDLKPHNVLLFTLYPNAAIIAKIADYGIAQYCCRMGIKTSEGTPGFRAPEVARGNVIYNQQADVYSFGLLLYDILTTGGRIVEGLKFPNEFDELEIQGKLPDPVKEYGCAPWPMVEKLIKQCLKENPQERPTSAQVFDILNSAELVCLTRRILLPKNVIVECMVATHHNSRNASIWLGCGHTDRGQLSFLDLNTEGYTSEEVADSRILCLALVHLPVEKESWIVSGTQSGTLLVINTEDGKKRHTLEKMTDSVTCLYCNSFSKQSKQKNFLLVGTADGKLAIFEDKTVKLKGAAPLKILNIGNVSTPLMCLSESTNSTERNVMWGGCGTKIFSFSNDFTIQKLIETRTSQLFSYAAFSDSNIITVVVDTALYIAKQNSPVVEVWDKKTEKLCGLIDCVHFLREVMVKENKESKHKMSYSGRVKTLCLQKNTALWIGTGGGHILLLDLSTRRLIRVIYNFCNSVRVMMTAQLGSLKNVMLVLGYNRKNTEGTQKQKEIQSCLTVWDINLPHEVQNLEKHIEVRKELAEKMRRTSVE

[5] = molecular target: Cytochrome P450 3A4 (Homo sapiens, UniProt P08684); experiment: Inhibition of CYP3A4; format: ADME
Sequence of Cytochrome P450 3A4 (P08684 whole entry): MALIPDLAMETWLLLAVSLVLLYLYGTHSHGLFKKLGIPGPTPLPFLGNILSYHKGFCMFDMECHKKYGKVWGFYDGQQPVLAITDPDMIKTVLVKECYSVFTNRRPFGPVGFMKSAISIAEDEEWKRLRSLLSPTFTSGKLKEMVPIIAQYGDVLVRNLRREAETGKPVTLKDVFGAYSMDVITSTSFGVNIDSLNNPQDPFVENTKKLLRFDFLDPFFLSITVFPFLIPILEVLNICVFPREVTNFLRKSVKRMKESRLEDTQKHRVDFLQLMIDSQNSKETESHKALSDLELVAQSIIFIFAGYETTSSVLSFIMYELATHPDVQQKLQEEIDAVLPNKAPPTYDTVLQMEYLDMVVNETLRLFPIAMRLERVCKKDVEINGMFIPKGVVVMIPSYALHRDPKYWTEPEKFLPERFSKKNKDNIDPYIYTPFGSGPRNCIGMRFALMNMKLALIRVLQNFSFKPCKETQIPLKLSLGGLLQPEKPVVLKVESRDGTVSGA

[6] = AUC in Sprague-Dawley rat at 2 mg/kg, po administered as suspension; format: ADME, organism-based; design: dose 2 mg/kg, route oral; conditions: plasma
[7] = molecular target: Cytochrome P450 2C9 (Homo sapiens, UniProt P11712); experiment: Inhibition of CYP2C9; format: ADME
[8] = Half life in Sprague-Dawley rat at 0.4 mg/kg, iv administered as bolus dose; format: ADME, organism-based; design: dose 0.4 mg/kg, route intravenous; conditions: in vivo
[9] = Aqueous solubility of the compound; format: physicochemical; conditions: buffer
[10] = Volume of distribution at steady state in Sprague-Dawley rat at 0.4 mg/kg, iv administered as bolus dose; format: ADME, organism-based; design: dose 0.4 mg/kg, route intravenous; conditions: in vivo, read-out: Vdss
[11] = Apparent permeability from apical to basal side of MDCK cells; format: ADME, cell-based, Canis lupus familiaris; conditions: dog
[12] = molecular target: Cytochrome P450 2D6 (Homo sapiens, UniProt P10635); experiment: Inhibition of CYP2D6; format: ADME
[13] = molecular target: Cytochrome P450 2C19 (Homo sapiens, UniProt P33261); experiment: Inhibition of CYP2C19; format: ADME
[14] = molecular target: Macrophage colony-stimulating factor 1 receptor (Homo sapiens) (UniProt P07333); experiment: Inhibition of CSF1R at 0.1 uM
Sequence of Macrophage colony-stimulating factor 1 receptor (Homo sapiens) (P07333 whole entry): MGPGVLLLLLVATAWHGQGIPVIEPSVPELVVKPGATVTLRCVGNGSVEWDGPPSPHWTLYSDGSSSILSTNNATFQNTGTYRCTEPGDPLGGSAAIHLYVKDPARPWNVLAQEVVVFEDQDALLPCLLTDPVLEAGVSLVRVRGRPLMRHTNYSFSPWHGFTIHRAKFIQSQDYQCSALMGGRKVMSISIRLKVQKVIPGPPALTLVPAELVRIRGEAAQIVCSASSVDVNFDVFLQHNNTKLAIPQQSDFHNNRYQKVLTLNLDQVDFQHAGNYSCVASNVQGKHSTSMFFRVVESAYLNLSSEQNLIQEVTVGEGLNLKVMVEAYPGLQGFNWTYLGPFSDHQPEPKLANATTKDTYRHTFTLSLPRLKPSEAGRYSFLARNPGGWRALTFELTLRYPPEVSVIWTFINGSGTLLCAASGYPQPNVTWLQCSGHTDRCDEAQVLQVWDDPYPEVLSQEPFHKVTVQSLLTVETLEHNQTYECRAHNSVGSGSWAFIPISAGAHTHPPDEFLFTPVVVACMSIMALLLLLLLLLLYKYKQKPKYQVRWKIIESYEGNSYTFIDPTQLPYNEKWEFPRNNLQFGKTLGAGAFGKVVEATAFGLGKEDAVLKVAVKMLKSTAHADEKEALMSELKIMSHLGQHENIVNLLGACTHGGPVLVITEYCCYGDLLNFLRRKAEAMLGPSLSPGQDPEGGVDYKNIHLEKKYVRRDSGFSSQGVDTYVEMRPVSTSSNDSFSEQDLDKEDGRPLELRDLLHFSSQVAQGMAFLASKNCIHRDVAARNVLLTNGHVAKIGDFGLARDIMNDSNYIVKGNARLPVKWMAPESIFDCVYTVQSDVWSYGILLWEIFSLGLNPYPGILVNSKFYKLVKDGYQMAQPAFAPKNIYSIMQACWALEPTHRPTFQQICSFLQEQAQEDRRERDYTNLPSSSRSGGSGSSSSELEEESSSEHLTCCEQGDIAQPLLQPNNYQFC

[15] = Clearance in Sprague-Dawley rat at 0.4 mg/kg, iv administered as bolus dose; format: ADME, organism-based; design: dose 0.4 mg/kg, route intravenous; conditions: in vivo
[16] = Oral bioavailability in Sprague-Dawley rat at 2 mg/kg administered as suspension; format: ADME, organism-based; conditions: in vivo
[17] = molecular target: T2, Cytochrome P450 1A2 (Homo sapiens, UniProt P05177); experiment: Inhibition of CYP1A2; format: ADME
T2 sequence (P05177 whole entry): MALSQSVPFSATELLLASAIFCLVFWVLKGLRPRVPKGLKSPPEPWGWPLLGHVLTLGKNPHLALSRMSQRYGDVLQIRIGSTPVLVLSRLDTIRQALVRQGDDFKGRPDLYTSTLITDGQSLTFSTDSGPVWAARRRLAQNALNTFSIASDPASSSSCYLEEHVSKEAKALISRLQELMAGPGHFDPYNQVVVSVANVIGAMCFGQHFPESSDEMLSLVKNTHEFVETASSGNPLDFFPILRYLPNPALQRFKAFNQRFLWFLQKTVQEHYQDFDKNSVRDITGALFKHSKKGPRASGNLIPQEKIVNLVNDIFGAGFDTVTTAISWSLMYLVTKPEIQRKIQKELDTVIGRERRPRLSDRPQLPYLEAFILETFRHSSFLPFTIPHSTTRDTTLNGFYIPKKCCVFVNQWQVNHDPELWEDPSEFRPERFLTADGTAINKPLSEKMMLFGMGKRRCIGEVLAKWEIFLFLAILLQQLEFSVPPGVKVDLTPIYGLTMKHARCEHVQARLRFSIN

T1 sequence (P23458 whole entry): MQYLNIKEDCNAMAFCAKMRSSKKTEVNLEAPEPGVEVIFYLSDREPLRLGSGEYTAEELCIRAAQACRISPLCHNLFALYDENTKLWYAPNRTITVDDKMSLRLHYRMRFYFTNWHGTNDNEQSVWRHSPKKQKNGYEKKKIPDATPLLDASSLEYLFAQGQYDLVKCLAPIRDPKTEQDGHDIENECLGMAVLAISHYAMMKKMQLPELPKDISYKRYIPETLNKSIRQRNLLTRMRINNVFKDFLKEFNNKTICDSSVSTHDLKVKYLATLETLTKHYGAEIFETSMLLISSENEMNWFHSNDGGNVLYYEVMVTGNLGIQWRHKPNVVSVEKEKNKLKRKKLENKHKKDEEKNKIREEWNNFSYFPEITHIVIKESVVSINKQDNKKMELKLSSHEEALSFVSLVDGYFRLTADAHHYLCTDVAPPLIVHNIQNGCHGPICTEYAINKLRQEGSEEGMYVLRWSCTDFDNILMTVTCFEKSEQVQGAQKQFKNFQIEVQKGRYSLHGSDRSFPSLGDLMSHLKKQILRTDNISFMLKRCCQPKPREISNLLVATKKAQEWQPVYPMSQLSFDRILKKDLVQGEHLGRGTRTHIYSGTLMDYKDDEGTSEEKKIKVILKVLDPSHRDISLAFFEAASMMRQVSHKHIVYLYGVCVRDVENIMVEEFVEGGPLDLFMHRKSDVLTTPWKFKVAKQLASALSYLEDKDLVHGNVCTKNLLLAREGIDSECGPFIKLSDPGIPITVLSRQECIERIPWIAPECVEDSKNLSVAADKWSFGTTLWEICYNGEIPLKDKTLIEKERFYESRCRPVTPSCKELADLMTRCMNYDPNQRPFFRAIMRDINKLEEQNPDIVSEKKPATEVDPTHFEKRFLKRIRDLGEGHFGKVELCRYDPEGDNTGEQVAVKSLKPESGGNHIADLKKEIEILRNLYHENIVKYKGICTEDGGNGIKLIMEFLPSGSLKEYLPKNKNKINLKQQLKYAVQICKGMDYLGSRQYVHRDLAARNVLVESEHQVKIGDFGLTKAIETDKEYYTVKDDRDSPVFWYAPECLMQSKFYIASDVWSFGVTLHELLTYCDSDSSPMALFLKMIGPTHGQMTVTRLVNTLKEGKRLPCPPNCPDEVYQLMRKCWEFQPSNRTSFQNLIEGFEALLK

An EC50 [1] of 1300 nM, a Ki [2] of 24 nM and a Ratio Ki [3] of 1.5 were found for N#CCCN1CCC(n2c(CC3CCCO3)nc3cnc4[nH]ccc4c32)CC1 (racemic) in this work.
An EC50 [1] of 210 nM was found for CC(=O)NCCc1nc2cnc3[nH]ccc3c2n1C1CCCCC1 in this work.
An EC50 [1] of 2000 nM, a Ki [2] of 16 nM and a Ratio Ki [3] of 4.5 were found for N#CCCN1CCC(n2c(CC3CCCC3)nc3cnc4[nH]ccc4c32)CC1 in this work.
In the case of CS(=O)(=O)NCCc1nc2cnc3[nH]ccc3c2n1C1CCN(CCC#N)CC1, the EC50 [1] is reported as > 6000 nM, the Ki [2] is reported as 1.7 nM and the Ratio Ki [3] is reported as 7.
An EC50 [1] of 2600 nM, a Ki [2] of 43 nM and a Ratio Ki [3] of 4.8 were found for N#CCCN1CCC(n2c(CC3CCOCC3)nc3cnc4[nH]ccc4c32)CC1 in this work.
An EC50 [1] of 430 nM, a Ki [2] of 4.3 nM and a Ratio Ki [3] of 3.6 were found for N#CCCN1CCC(n2c(C3CCC3)nc3cnc4[nH]ccc4c32)CC1 in this work.
In the case of CC(=O)NCCc1nc2cnc3[nH]ccc3c2n1C1CCN(CCC#N)CC1, the EC50 [1] is reported as > 6500 nM, the Ki [2] is reported as 3.7 nM and the Ratio Ki [3] is reported as 5.6.
An EC50 [1] of 1500 nM, a Ki [2] of 12 nM and a Ratio Ki [3] of 6.7 were found for CC(=O)NCc1nc2cnc3[nH]ccc3c2n1C1CCN(CC(F)(F)F)CC1 in this work.
An EC50 [1] of 625 nM, a Ki [2] of 8.4 nM and a Ratio Ki [3] of 3.6 were found for CCOC(=O)NCc1nc2cnc3[nH]ccc3c2n1C1CCN(CCC#N)CC1 in this work.
For CC(=O)NCc1nc2cnc3[nH]ccc3c2n1C1CCN(CCC#N)CC1, the EC50 [1] was > 3800 nM and the Ratio Ki [3] was 5.4.
An EC50 [1] of 1200 nM, a Ki [2] of 5.4 nM and a Ratio Ki [3] of 11 were found for CC(C)CS(=O)(=O)NCc1nc2cnc3[nH]ccc3c2n1C1CCN(CCC#N)CC1 in this work.
An EC50 [1] of 1800 nM, a Ki [2] of 14 nM and a Ratio Ki [3] of 2.6 were found for N#CCCN1CCC(n2c(CCn3cccn3)nc3cnc4[nH]ccc4c32)CC1 in this work.
An EC50 [1] of 410 nM, a Ki [2] of 9.1 nM and a Ratio Ki [3] of 4.2 were found for CC(C)c1nc2cnc3[nH]ccc3c2n1C1CCN(CCC#N)CC1 in this work.
With CS(=O)(=O)NCc1nc2cnc3[nH]ccc3c2n1[C@@H]1C[C@H]2CC[C@@H]1C2 the inhibition [4] was > 50%, the IC50 [5] was > 10000 nM and the AUC [6] was 2.2 µM·h. For the same compound, the IC50 [7] was > 10000 nM, the half-life [8] was 1.5 h and the solubility [9] was 71 µM (≈ 25.5 µg/mL). The Vd [10] was 4 L/kg, the Papp A→B [11] was 8.2 ×10⁻⁶ cm/s and the IC50 [12] was > 10000 nM. The IC50 [13] was > 10000 nM, the inhibition [14] was > 50% and the clearance [15] was 33 mL/min/kg. For the same compound, the bioavailability [16] was 79% and the IC50 [17] was > 10000 nM.
An EC50 [1] of 4200 nM, a Ki [2] of 28 nM and a Ratio Ki [3] of 8 were found for CS(=O)(=O)NCc1nc2cnc3[nH]ccc3c2n1C1CC2CCC1O2 (racemic) in this work.
An EC50 [1] of 160 nM, a Ki [2] of 3 nM and a Ratio Ki [3] of 8.4 were found for CC(=O)NCc1nc2cnc3[nH]ccc3c2n1C1CC2CCC1C2 (racemic) in this work.
An EC50 [1] of 570 nM, a Ki [2] of 8.7 nM and a Ratio Ki [3] of 5.4 were found for N#CCCN1CCC(n2c(CCC3CCCO3)nc3cnc4[nH]ccc4c32)CC1 (racemic) in this work.
An EC50 [1] of 2600 nM, a Ki [2] of 13 nM and a Ratio Ki [3] of 7.6 were found for Cn1ccc(CCc2nc3cnc4[nH]ccc4c3n2C2CCN(CCC#N)CC2)n1 in this work.
An EC50 [1] of 160 nM and a Ratio Ki [3] of 1.8 were found for N#CCCN1CCC(n2c(C3CC3)nc3cnc4[nH]ccc4c32)CC1 in this work.
An EC50 [1] of 50 nM, a Ki [2] of 0.6 nM and a Ratio Ki [3] of 10 were found for CS(=O)(=O)NCCc1nc2cnc3[nH]ccc3c2n1C1CC2CCC1C2 (racemic) in this work.
An EC50 [1] of 275 nM, a Ki [2] of 4.6 nM and a Ratio Ki [3] of 2.1 were found for CCCc1nc2cnc3[nH]ccc3c2n1C1CCN(CCC#N)CC1 in this work.
